# Biological target: T1, human PRMT8 (Homo sapiens, UniProt Q9NR22)
# T1 construct: Full-length human PRMT8 (NM_019854.4) isoform 1 transcript clone; made in house; host or cells: E. coli BL21(DE3) Gold
# Assay: PRMT8 Biochemical Assay
# Details: biochemical evaluation, peptide substrate
# Excerpt: S-adenosylmethionine (SAM), S-adenosylhomocysteine (SAH), bicine, Tween20, dimethylsulfoxide (DMSO), bovine skin gelatin (BSG), isopropyl-β-D-thiogalactopyranoside (IPTG), and Tris(2-carboxyethyl)phosphine hydrochloride solution (TCEP) were purchased from Sigma-Aldrich at the highest level of purity possible. ^3H-SAM was purchase from American Radiolabeled Chemicals with a specific activity of 80 Ci/mmol. 384-well streptavidin Flashplates were purchased from PerkinElmer.
# Peptide representative of human histone H4 residues 31-45 was synthesized with an N-terminal linker-affinity tag motif and a C-terminal amide cap by 21st Century Biochemicals. The peptide was purified by high-performance liquid chromatography (HPLC) to greater than 95% purity and confirmed by liquid chromatography mass spectrometry (LC-MS). The sequence was Biot-Ahx-[…]-amide (SEQ ID NO.: 8).
# The resulting construct encodes an N-terminal GST tag and a thrombin cleavage sequence ([…] […]
# The assays were all performed in a buffer consisting of 20 mM Bicine (pH=7.6), 1 mM TCEP, 0.005% BSG, and 0.002% Tween 20, prepared on the day of use. […] The plates were then read in a PerkinElmer TopCount plate reader to measure the quantity of ^3H-labeled peptide bound to the Flashplate surface, measured as disintegrations per minute (dpm) or alternatively, referred to as counts per minute (cpm). […]
# T1 sequence (Q9NR22 whole entry, canonical isoform): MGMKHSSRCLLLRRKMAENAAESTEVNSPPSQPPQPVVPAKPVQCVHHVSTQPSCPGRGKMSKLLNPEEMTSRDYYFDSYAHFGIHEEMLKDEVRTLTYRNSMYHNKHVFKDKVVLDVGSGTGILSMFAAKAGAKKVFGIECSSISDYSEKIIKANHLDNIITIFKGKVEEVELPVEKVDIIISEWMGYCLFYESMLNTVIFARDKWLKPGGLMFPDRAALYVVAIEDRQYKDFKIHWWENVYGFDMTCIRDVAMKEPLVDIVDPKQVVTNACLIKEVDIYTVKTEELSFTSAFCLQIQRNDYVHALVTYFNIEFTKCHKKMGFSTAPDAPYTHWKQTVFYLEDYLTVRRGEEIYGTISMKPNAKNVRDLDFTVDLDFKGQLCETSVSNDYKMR
compound,measurement,value
CN(CCN)Cc1n[nH]c2cccc(OCc3ccccc3)c12 [Compound 1],IC50,101 to 1000 nM
